In patent US7494980B2, “Antimicrobial peptide and methods of use thereof” (The United States of America as represented by the …, priority 2003, dated 2009):
Ends that are not written are not given here.

Legend:
S. oralis ATCC 35037 = assay: In vitro susceptibility (broth microdilution MIC, MBC by spiral-plating); format: cell-based, Streptococcus oralis; settings: clear MIC wells plated on BAP, 24-48 h
Text: Strains used in Examples 3-6 included ATCC and laboratory strains of different oral bacteria. These included: Actinomyces naeslundii strain T14V-J1, Actinomyces israelii ATCC 10049, Streptococcus mutans strains LT 11 and ATCC 25175, Streptococcus sobrinus ATCC 33478, Streptococcus gordonii strains DL1 and ATCC 51656, Streptococcus sanguis strains SK36 and ATCC 10556, Streptococcus salivarius ATCC 9222, Streptococcus oralis strains 34 and ATCC 35037, Lactobacillus salivarius ATCC 29602, Lactobacillus acidophilus ATCC 4357, and Actinobacillus actinomycetemcomitans ATCC 43718. S. mutans strain LT 11 was kindly provided by Lin Tao, University of Illinois at Chicago, Ill. S. gordonii DLI, S. sanguis SK36, and S. oralis 34 were provided by John Cisar, National Institute of Dental and Craniofacial Research, NIH, Bethesda, Md. […]
(§1) MICs were determined as described by Fuchs et al. (1998) with a slight modification. […] The MIC was defined as the lowest concentration of the peptide that prevented visible turbidity, as measured at 600 nm by using an ELISA reader (Titertek Multiskan MCC/340). […] Minimum bactericidal concentrations (MBCs) were determined by spiral-plating (Spiral Plater Autoplate 4000; Spiral Biotech) 50 μl from each clear well (≧MIC) onto BAP.

[1] = system: Actinomyces naeslundii T14V-J1; assay: as above; format: cell-based; settings: 24-48 h
Text: (§2) Strains used in Examples 3-6 included ATCC and laboratory strains of different oral bacteria. These included: Actinomyces naeslundii strain T14V-J1, Actinomyces israelii ATCC 10049, Streptococcus mutans strains LT 11 and ATCC 25175, Streptococcus sobrinus ATCC 33478, Streptococcus gordonii strains DL1 and ATCC 51656, Streptococcus sanguis strains SK36 and ATCC 10556, Streptococcus salivarius ATCC 9222, Streptococcus oralis strains 34 and ATCC 35037, Lactobacillus salivarius ATCC 29602, Lactobacillus acidophilus ATCC 4357, and Actinobacillus actinomycetemcomitans ATCC 43718. S. mutans strain LT 11 was kindly provided by Lin Tao, University of Illinois at Chicago, Ill. S. gordonii DLI, S. sanguis SK36, and S. oralis 34 were provided by John Cisar, National Institute of Dental and Craniofacial Research, NIH, Bethesda, Md.
(§3) Todd-Hewitt broth (THB), brain heart infusion (BHI) broth, Todd-Hewitt agar (THA), trypticase soy agar (TSA), lactobacilli MRS (MRS) broth, Actinomyces broth and Mueller-Hinton broth (MHB) were purchased from Becton Dickinson. Blood agar plates (BAP) were prepared by supplementing TSA with 5% sheep blood (PML Microbiologicals). All cultures, except for Actinobacillus actinomycetemcomitans, S. mitis and Actinomyces israelii, were grown at 37° C. in room air. Actinobacillus actinomycetemcomitans cultures were grown on BAP or in MHB supplemented with 15 μg haemin ml^−1 (Sigma), 15 μg β-nicotinamide adenine dinucleotide (NAD) ml^−1 (Sigma) and 5% yeast extract (Becton Dickinson) at 37° C. in 5% CO2. S. mitis was grown on BAP or in BHI broth at 37° C. in 5% CO2. Actinomyces israeilli was grown anaerobically in an anaerobic chamber (Coy Laboratory Products) in a 5% CO2/10% H2/85% N2 atmosphere.
(§4) MICs were determined as described by Fuchs et al. (1998) with a slight modification. Procedures were based on the National Committee for Clinical Laboratory Standards broth microdilution method. MHB was used as the main assay medium for most of the tested organisms. Freshly grown cultures at exponential phase were used as the inoculum. Bacteria were centrifuged at 4000 r.p.m. for 15 min at 4° C., suspended in 2× concentrated medium and adjusted to 4×106 c.f.u ml−1 in 2× concentrated medium. Aqueous peptide solution (100 μl) was added to each well of a 96-well, flat-bottomed plate (Becton Dickinson). The peptide solution was serially diluted (twofold) with sterile distilled water in the wells, with final peptide concentrations ranging from 3.13 to 200 μg ml−1. After dispensing 100 μl aliquots of bacterial suspension into the wells, the 96-well plates were incubated at 37° C. for 24-48 h in room air, CO2 or anaerobically. The MIC was defined as the lowest concentration of the peptide that prevented visible turbidity, as measured at 600 nm by using an ELISA reader (Titertek Multiskan MCC/340). […] Minimum bactericidal concentrations (MBCs) were determined by spiral-plating (Spiral Plater Autoplate 4000; Spiral Biotech) 50 μl from each clear well (≧MIC) onto BAP.

S. mitis ATCC = assay: as above; format: cell-based; settings: 24-48 h
Text: as §2, §3, §4

[2] = system: Actinomyces israelii ATCC 10049; assay: as above; format: cell-based; settings: 24-48 h
Text: as §2, §3, §4

S. gordonii ATCC 51656 [3] = assay: Bactericidal assay (log reduction in viable counts); format: cell-based, Streptococcus gordonii
Text: as §2
(§5) The bactericidal assay was performed according to procedures described by Miyasaki et al. (1997, 1998) with a slight modification. […] Susceptibility was determined by examining the log reduction in viability counts of organisms that had been exposed to different concentrations of KSL. […] Bactericidal activity was also expressed as the 99% effective dose (ED99), which is the concentration of the antimicrobial decapeptide at which there is a 2-log or more reduction in c.f.u. […]
(§6) In addition to the determinations of MICs and MBCs of KSL, log reductions in viable counts of selected oral bacteria caused by KSL were also determined. […] With the exception of Actinobacillus actinomycetemcomitans, for which the assays were performed in 0.01% BHI, bactericidal action of KSL was determined in isotonic HBSS after incubation with the targeted bacteria for 1 h at 37° C. KSL at 6.25 μg ml^−1, which was determined to be the 99% effective dose (ED99), caused more than 2 log reductions in viable counts of the organisms tested, which included L. salivarius ATCC 29602 (FIG. 3a), S. mutans ATCC 25175^T (FIG. 3b), S. gordonii ATCC 51656 (FIG. 3c), and Actinobacillus actinomycetemcomitans ATCC 43718 (FIG. 3d).

L. acidophilus ATCC 4357 = assay: In vitro susceptibility (broth microdilution MIC, MBC by spiral-plating); format: cell-based, Lactobacillus acidophilus
Text: as §2
as §3, with “Actinomyces israeilli was grown anaerobically in an anaerobic chamber (Coy Laboratory Products) in a 5% CO2/10% H2/85% N2 atmosphere.” left out
as §1

[4] = system: Actinobacillus actinomycetemcomitans ATCC 43718; assay: Bactericidal assay (log reduction in viable counts); format: cell-based
Text: as §2, §5, §6

S. gordonii ATCC 51656 [5] = assay: In vitro susceptibility (broth microdilution MIC, MBC by spiral-plating); format: cell-based, Streptococcus gordonii; settings: 24-48 h
Text: as §2, §3
as §4, with “The peptide solution was serially diluted (twofold) with sterile distilled water in the wells, with final peptide concentrations ranging from 3.13 to 200 μg ml−1. After dispensing 100 μl aliquots of bacterial suspension into the wells, the 96-well plates were incubated at 37° C. for 24-48 h in room air, CO2 or anaerobically.” left out

S. gordonii DL1 = assay: as above; format: cell-based, Streptococcus gordonii; settings: 24-48 h
Text: as §2, §3
as §4, with “The peptide solution was serially diluted (twofold) with sterile distilled water in the wells, with final peptide concentrations ranging from 3.13 to 200 μg ml−1. After dispensing 100 μl aliquots of bacterial suspension into the wells, the 96-well plates were incubated at 37° C. for 24-48 h in room air, CO2 or anaerobically.” left out

S. sobrinus ATCC 33478 = assay: as above; format: cell-based, Streptococcus sobrinus
Text: as §2
as §3, with “Actinomyces israeilli was grown anaerobically in an anaerobic chamber (Coy Laboratory Products) in a 5% CO2/10% H2/85% N2 atmosphere.” left out
as §1

[6] = clear MIC wells plated on BAP, 24-48 h
[7] = MHB, 4 × 10^6 cells ml^−1, 37° C.

“KKVVFKVKFK-NH2 [KSL, lys-lys-val-val-phe-lys-val-lys-phe-lys]” was tested. Which MBC (S. oralis ATCC 35037) did it give?
Its MBC is 200 µg/mL.

What about the MIC ([1]; MHB or modified broth, 4 × 10^6 cells ml^−1, 37° C.) of the same substance?
The MIC was 3.13 µg/mL.

And the MBC ([1]; clear MIC wells plated on BAP)?
Its MBC is 12.5 µg/mL.

What about the MIC (S. mitis ATCC; BHI, 5% CO2, 4 × 10^6 cells ml^−1, 37° C.) of the same substance?
Its MIC is 25 µg/mL.

And the MBC (S. mitis ATCC; clear MIC wells plated on BAP)?
Its MBC is 50 µg/mL.

And the MIC ([2]; 20% Actinomyces broth, anaerobic, 4 × 10^6 cells ml^−1, 37° C.)?
The MIC was 6.25 µg/mL.

What about the MBC ([2]; clear MIC wells plated on BAP) of the same substance?
The MBC was 12.5 µg/mL.

What about the “log reduction in viable counts” value (S. gordonii ATCC 51656 [3]; 6.25 μg ml^−1, HBSS, FIG. 3c) of the same substance?
Its value is “more than 2 log”.

And the reduction in viability (S. gordonii ATCC 51656 [3]; concentrations of <10 μg ml^−1)?
The reduction in viability was over 3 logs.

What about the “ED99 (99% effective dose)” value (S. gordonii ATCC 51656 [3]; isotonic HBSS, 1 h at 37° C.) of the same substance?
The value was 6.25 µg/mL.

And the “concentration inhibiting growth effectively” value (L. acidophilus ATCC 4357)?
The value was under 25 µg/mL.

And the MIC (L. acidophilus ATCC 4357; 10% MRS, 4 × 10^6 cells ml^−1, 37° C., 24-48 h)?
Its MIC is 3.13 µg/mL.

What about the MBC (L. acidophilus ATCC 4357; [6]) of the same substance?
Its MBC is 12.5 µg/mL.

And the “log reduction in viable counts” value ([4]; 6.25 μg ml^−1, 0.01% BHI, FIG. 3d)?
Its value is “more than 2 log”.

And the “ED99 (99% effective dose)” value ([4]; 0.01% BHI, 1 h at 37° C.)?
The value was 6.25 µg/mL.

And the reduction in viability ([4]; concentrations of <10 μg ml^−1)?
Its reduction in viability is over 3 logs.

What about the MIC (S. gordonii ATCC 51656 [5]; [7]) of the same substance?
The MIC was 50 µg/mL.

What about the MBC (S. gordonii ATCC 51656 [5]; clear MIC wells plated on BAP) of the same substance?
Its MBC is 100 µg/mL.

What about the MIC (S. gordonii DL1; [7]) of the same substance?
The MIC was 50 µg/mL.

And the MBC (S. gordonii DL1; clear MIC wells plated on BAP)?
The MBC was 100 µg/mL.

What about the “concentration inhibiting growth effectively” value (S. sobrinus ATCC 33478) of the same substance?
Its value is under 25 µg/mL.

What about the MIC (S. sobrinus ATCC 33478; MHB, 4 × 10^6 cells ml^−1, 37° C., 24-48 h) of the same substance?
The MIC was 25 µg/mL.

What about the MBC (S. sobrinus ATCC 33478; [6]) of the same substance?
Its MBC is 50 µg/mL.
